Laboratory results published in PMC7767381, “Exploring the Anti-Cancer Mechanism of Novel 3,4′-Substituted Diaryl Guanidinium Derivatives” (Pharmaceuticals, 2020).
“Also recorded” adds a separate entry of the source. Where a name gives a salt, the structure may show the parent alone.

Experiments:
HL-60 cells = test: alamarBlue cell viability assay, HL-60; format: cell-based; details: Homo sapiens, HL-60, 72 h, alamarBlue, 72 h; read-out: HL-60 IC50 ± SEM
Text: Cell viability and proliferation assays were used to evaluate the in vitro cytotoxicity of all synthesised compounds in a variety of different cancer cell lines using the alamarBlue® viability assay and the results are presented in Table 1 and Table 2. The sensitivity of cancer cells to drugs can often be compromised by PIK3CA, Ras and BRAF mutations. To determine whether such mutations are critical to the efficacy of our new compounds we tested them in a range of cancerous cell lines expressing different mutations. Firstly, we used the HL-60 (human promyelocytic leukaemia, NRas mutated) cell line for general cytotoxicity screening of all compounds. […] Lastly, toxicity against MCF-10A, which is a non-tumorigenic epithelial cell line, was also assessed for one of the most promising compounds (4). The graphs representing the viability results with the HL-60, MCF-7, HeLa, HCT-116, and HKH-2 cancer cell lines for compound 1 and derivatives 2, 3, and 4 are shown in Figures S7–S10 (ESI).
Cells were counted and seeded in 96-well plates at a density of 2 × 10^5 cells/mL for HL-60, 2.5 × 10^4 cells/mL for MCF-7, MCF10A and HeLa, 1 × 10^5 cells/mL for HCT116 and HKH-2, all of them in their respective media. The 96-well plates were then treated with a 1:100 dilution of stock concentrations of drugs or EtOH (1% v/v)/DMSO (0.1% v/v) as vehicle control in triplicate. Three blank wells containing 200 µL RPMI with no cells were also set-up as blanks. After a 72 h incubation, 20 µL of alamarBlue was added to each well. The plates were incubated in darkness at 37 °C for 4–5 h using a Molecular Devices microplate reader, the fluorescence (F) was then read at an excitation wavelength of 544 nm and an emission wavelength of 590 nm. Cell viability was then determined by subtracting the mean blank fluorescence (Fb) from the treated sample fluorescence (Fs) and expressing this as a percentage of the fluorescence of the blanked vehicle control (Fc). […] The results were then plotted as a nonlinear regression, sigmoidal dose-response curves on Prism, from which the IC50 value for each drug was determined. […]
Pharmacy, TCD. It was maintained in Roswell Park Memorial Institute (RPMI) 1640 medium with stable glutamate (GlutaMax I) supplemented with 10% (v/v) fetal bovine serum (FBS), 1% (v/v) penicillin/ streptomycin (pen-strep) and 2 mM L-glutamine. […]
4.4. AlamarBlue ® Cell Viability Assay
Cells were counted and seeded in 96 well plates at a density of 2 × 10^5 cells/mL for HL-60, 2.5× 10^4 cells/mL for MCF-7, MCF10A and HeLa, 1 × 10^5 cells/mL for HCT116 and HKH-2, all of them in their respective media. The 96 well plates were then treated with a 1:100 dilution of stock concentrations of drugs or EtOH (1% v/v)/DMSO (0.1% v/v) as vehicle control in triplicate.
Three blank wells containing 200 µL media with no cells were also set-up as blanks. After a 72 h incubation, 20 µL of AlamarBlue was added to each well. The plates were incubated in darkness at 37 °C for 4-5 h. Using a Molecular Devices microplate reader, the fluorescence (F) was then read at an excitation wavelength of 544 nm and an emission wavelength of 590 nm.
Cell viability was then determined by subtracting the mean blank fluorescence (Fb) from the treated sample fluorescence (Fs) and expressing this as a percentage of the fluorescence of the blanked vehicle control (Fc). […] The results were […]
then plotted as a nonlinear regression, sigmoidal dose-response curves on Prism, from which the IC50 value for each drug was determined.
Fs − Fb x 100 = % Cell Viability
60 cell line in a dose-dependent manner.
(1 picture or pasted object on this page, not shown here)

[1] = tested on: ERK phosphorylation (MAPK/ERK pathway); test: Western immunoblot of ERK phosphorylation in HL-60 extracts; format: cell-based, human; details: HL-60, 5 µM, 16 h
Procedure: Thus, using Western immunoblot analysis of HL-60 extracts, we investigated the expression and phosphorylation levels of ERK (as an indication of ERK activation), which is the downstream effector of the Ras/BRAF signalling pathway (Figure 6).
HL60s were seeded in T25 flasks at 50 × 10^4 cells/mL and cells were treated with either vehicle [0.5% EtOH (v/v)], 1–4, 9 or 52 (5 µM), as well as 1 (10 µM as reported). After 16 h, cells were collected and washed with PBS. Cell pellets were re-suspended in cold cell lysis buffer (radio-immunoprecipitation assay buffer) supplemented with 1% phosphatase inhibitor cocktail 2 and 3 (Sigma) and 10% protease inhibitor (Roche). Cells were lysed for 30 min on ice. Protein concentration was then determined by BCA assay. Lysates were boiled with Laemmli sample buffer [Tris-HCL 50 mM (pH 6.7), glycerol 10% (w/v), sodium dodecyl sulphate 2% (w/v), bromophenol blue 0.02% (w/v)] containing DTT […] for 10 min at 90 °C. Moreover, 20 µg of lysates were resolved by sodium dodecyl sulphate polyacrylamide gel electrophoresis (SDS-PAGE) and transferred onto PVDF transfer membrane (EMD Millipore). Membranes were blocked with 5% non-fat milk and probed with primary antibodies for ERK and phospho-ERK (Cell Signalling). Anti-GAPDH was used as a loading control (Calbiochem).
Figure 6 Western immunoblot of HL-60 cell extracts following incubation with compounds 2, 3, 4, 9, 52 and 1 (as a control). HL60 cells were seeded at 2 × 10^5 cells/mL and were treated with either vehicle [0.5% EtOH (v/v)], compounds 52, 2, 9, 3 and 4 (5 µM) or compound 1 (5 and (*) 10 µM, as in reference) for 16 h. Cells were lysed and equal amounts of protein were loaded and separated on 15% SDS-PAGE gels, transferred to PVDF membrane and probed with antibodies against total and phosphorylated ERK. Anti-GAPDH was used as a loading control. Results are representative of 2 independent experiments.
HL-60 cells were seeded in T25 flasks at 50 x10^4 cells/mL and treated with either vehicle [0.5% […]
After 16 hours, cells were […]
collected and washed with PBS. Cell pellets were re-suspended in cold cell lysis buffer (radio-immunoprecipitation assay buffer) supplemented with 1% phosphatase inhibitor cocktail 2 and 3 (Sigma) and 10% protease inhibitor (Roche). Cells were lysed for 30 minutes on ice.
Protein concentration was then determined by BCA assay. Lysates were boiled with laemmli sample buffer [Tris-HCL 50 mM (pH 6.7), glycerol 10% (w/v), sodium dodecyl sulphate 2% (w/v), bromophenol blue 0.02% (w/v)] containing DTT […] for 10 min. at 90 °C. Also 20 µg of lysates were resolved by sodium dodecyl sulphate polyacrylamide gel electrophoresis (SDS - PAGE) and transferred onto PVDF transfer membrane (EMD Millipore). Membranes were blocked with 5% non-fat milk and probed with primary antibodies for ERK and phospho-ERK (Cell Signaling). Anti-GAPDH was used as a loading control (Calbiochem).

SMILES	melting point	IC50 (HL-60 cells)	effect on ERK phosphorylation (Ras/BRAF pathway) [1]
N=C(N)Nc1ccc(Oc2cccc(NC(=N)Nc3ccc(F)c(F)c3)c2)cc1 (as salt: hydrochloride) [Compound 6, 1-(3:4-Di-fluorophenyl)-2-(3-(4-guanidinophenoxy)phenyl)guanidine dihydrochloride]	158 to 160 °C	–	–
N=C(N)Nc1ccc(Oc2cc(F)cc(Nc3ccc(Cl)c(C(F)(F)F)c3)c2)cc1 (as salt: hydrochloride) [Compound 36, 1-(4-(3-((4-Chloro-3-(trifluormethyl)phenyl)amino)-5-fluorophenoxy)phenyl)guanidine hydrochloride]	92 to 94 °C	–	–
N=C(N)Nc1ccc(Oc2cccc(N=C(N)Nc3ccc(F)cc3)c2)cc1 [Compound 5, 1-(4-Fluorophenyl)-2-(3-(4-guanidinophenoxy)phenyl)guanidine dihydrochloride]	–	> 100 µM	–
N=C(N)Nc1ccc(Oc2cccc(NC(=N)Nc3ccc(F)c(F)c3)c2)cc1 [Compound 6, 1-(3:4-Di-fluorophenyl)-2-(3-(4-guanidinophenoxy)phenyl)guanidine dihydrochloride]	–	> 100 µM	–
N=C(N)Nc1ccc(Oc2cccc(N=C(N)Nc3ccc(I)cc3F)c2)cc1 [Compound 7, 1-(2-Fluoro-4-iodophenyl)-2-(3-(4-guanidinophenoxy)phenyl)guanidine dihydrochloride]	–	8.63 ± 0.51 µM	–
N=C(N)Nc1ccc(Oc2cccc(N=C(N)Nc3ccc(Br)cc3)c2)cc1 [Compound 8, 1-(4-Bromophenyl)-2-(3-(4-guanidinophenoxy)phenyl)guanidine dihydrochloride]	–	15.3 ± 1.98 µM	–
Cl.Cl.N=C(N)Nc1ccc(Oc2cccc(N=C(N)Nc3ccc(Br)c(C(F)(F)F)c3)c2)cc1 [Compound 9, 1-(4-Bromo-3-(trifluoromethyl)phenyl)-2-(3-(4-guanidinophenoxy)phenyl)guanidine dihydrochloride]	–	2.07 ± 0.33 µM	inhibiting ERK phosphorylation; also recorded: abrogates ERK activation
N=C(N)Nc1cccc(Oc2ccc(N=C(N)Nc3ccc(I)cc3F)cc2)c1 [Compound 10, 1-(2-Fluoro-4-iodophenyl)-2-(4-(3-guanidinophenoxy)phenyl)guanidine dihydrochloride]	–	8.85 ± 0.55 µM	–
N=C(N)Nc1cccc(Oc2ccc(N=C(N)Nc3ccc(Br)c(C(F)(F)F)c3)cc2)c1 [Compound 11, 1-(4-Bromo-3-(trifluoromethyl)phenyl)-2-(4-(3-guanidinophenoxy)phenyl)guanidine dihydrochloride]	–	11 ± 0.64 µM	–
Cl.N=C(N)Nc1ccc(Oc2cccc(Nc3ccc(Cl)cc3)c2)cc1 [Compound 28, 1-(4-(3-((4-Chlorophenyl)amino)phenoxy)phenyl)guanidine hydrochloride]	50 to 52 °C	7.5 ± 0.05 µM	–
Cl.N=C(N)Nc1ccc(Oc2cccc(Nc3cccc(C(F)(F)F)c3)c2)cc1 [Compound 29, 1-(4-(3-((3-(Trifluoromethyl)phenyl)amino)phenoxy)phenyl)guanidine hydrochloride]	93 to 95 °C	4.64 ± 0.83 µM	–
Cl.N=C(N)Nc1ccc(Oc2cccc(Nc3cccc(S(F)(F)(F)(F)F)c3)c2)cc1 [Compound 30, 1-(4-(3-((3-(Pentafluorosulfanyl)phenyl)amino)phenoxy)phenyl)guanidine hydrochloride]	104 to 106 °C	3.23 ± 0.36 µM	–
N=C(N)Nc1ccc(Oc2cc(F)cc(Nc3ccc(Cl)c(C(F)(F)F)c3)c2)cc1 [Compound 36, 1-(4-(3-((4-Chloro-3-(trifluormethyl)phenyl)amino)-5-fluorophenoxy)phenyl)guanidine hydrochloride]	–	4.07 ± 0.1 µM	–
N=C(N)Nc1ccc(Oc2cccc(NC(=N)Nc3ccc(F)c(F)c3)c2)cn1 [Compound 49, 1-(3,4-Di-fluorophenyl)-3-(3-((6-guanidinopyridin-3-yl)oxy)phenyl)guanidine dihydrochloride]	–	11.6 ± 0.27 µM	–
N=C(N)Nc1ccc(Oc2cccc(NC(=N)Nc3ccc(I)cc3F)c2)cn1 [Compound 50, 1-(2-Fluoro-4-iodophenyl)-3-(3-((6-guanidinopyridin-3-yl)oxy)phenyl)guanidine dihydrochloride]	–	8.33 ± 0.32 µM	–
N=C(N)Nc1ccc(Oc2cccc(NC(=N)Nc3ccc(Br)cc3)c2)cn1 [Compound 51, 1-(4-Bromophenyl)-3-(3-((6-guanidinopyridin-3-yl)oxy)phenyl)guanidine dihydrochloride]	–	9.37 ± 0.54 µM	–
Cl.Cl.N=C(N)Nc1ccc(Oc2cccc(NC(=N)Nc3ccc(Br)c(C(F)(F)F)c3)c2)cn1 [Compound 52, 1-(4-Bromo-3-(trifluoromethyl)phenyl)-3-(3-((6-guanidinopyridin-3-yl)oxy)phenyl) guanidine dihydrochloride]	–	1.53 ± 0.23 µM	inhibiting ERK phosphorylation; also recorded: abrogates ERK activation
NS(=O)(=O)Nc1ccc(Oc2cccc(Nc3ccc(Cl)c(C(F)(F)F)c3)c2)cc1 [Compound 75]	124 to 126 °C	9.14 ± 0.69 µM	–
